From patent US20230372227A1, “PRESERVATIVE COMPRISING POLYLYSINE AND CAPRYLYL GLYCERYL ETHER FOR EXTERNAL-USE SKIN FORMULATIONS AND COSMETICS COMPOSITION COMPRISING SAME” (ACTIVON CO., LTD., priority 2020, published 2023)

Key:
Assay in all cases: Minimum inhibitory concentration (MIC) of preservatives
Type in all cases: cell-based
[1] = tested on: Aspergillus brasiliensis (ATCC 16404); conditions: Experimental Example 1; growth inhibited by about 95% or more; about 10^6 CFU/ml; about 25° C., 24 to 48 hours
Protocol: (§1) In this experimental example, in order to evaluate the antimicrobial effect of the preservatives for skin external preparations, prepared in Examples 1 to 5, the minimum inhibitory concentrations (MICs) of the preservative of each Example against bacteria or fungi, including Escherichia coli (ATCC 8739), Pseudomonas aeruginosa (ATCC 9027), Staphylococcus aureus (ATCC 6538), Candida albicans (ATCC 10231), and Aspergillus brasiliensis (ATCC 16404), were measured.
(§2) Specifically, each of the preservatives for skin external preparations, prepared in Examples 1 to 5, was diluted to about 13% to about 25%, and each of the dilutions was further serially diluted 1:1 (10 times). Thereby, samples of various concentrations (about 0.05% to about 10%) for each of the preservatives for skin external preparations, prepared in Examples 1 to 5, were prepared. Each of the obtained samples was added to tryptic soy broth (TSB) medium or potato dextrose agar (PDA) medium. In about 10 ml of the medium to which each sample was added, each type of bacteria or fungi described above was seeded so that the final concentration of the bacteria or fungi was about 10^6 CFU/ml, and then the bacteria were cultured at about 32° C. for about 24 hours to 48 hours, and fungi were cultured at about 25° C. for about 24 hours to 48 hours. Thereafter, the minimum inhibitory concentration (MIC) of each sample capable of inhibiting the growth of the bacteria or fungi by about 95% or more was determined by observing the state of the bacterial or fungal culture medium. The growth of normal bacteria in a medium to which no sample was added was measured and used as a positive control, and the MIC for the growth of bacteria or fungi in a medium to which polyepsilon-lysine, caprylyl glyceryl ether, or propylene glycol was added alone was measured and used as a control.
(§3) In this experimental example, in order to evaluate the antimicrobial effect of a preservative for a skin external application comprising polylysine, caprylyl glyceryl ether and a glycol compound at a weight ratio of 0.1 to 5:10 to 30:65 to 75, the minimum inhibitory concentrations (MICs) of the preservative of each Example against bacteria or fungi, including Escherichia coli (ATCC 8739), Pseudomonas aeruginosa (ATCC 9027), Staphylococcus aureus (ATCC 6538), Candida albicans (ATCC 10231), and Aspergillus brasiliensis (ATCC 16404), were measured. Polyepsilon-lysine was used as the polylysine, and propylene glycol, butylene glycol, or pentylene glycol was used as the glycol compound.
(§4) Each of the preservatives for skin external preparations was diluted to about 10%, and each of the dilutions was further serially diluted 1:1 ([…]). Thereby, samples of various concentrations (about 0.01% to about 10%) for each of the preservatives for skin external preparations were prepared. Each of the obtained samples was added to tryptic soy broth (TSB) medium or potato dextrose agar (PDA) medium. In about 10 ml of the medium to which each sample was added, each type of bacteria or fungi described above was seeded so that the final concentration of the bacteria or fungi was about 10^6 CFU/ml, and then the bacteria were cultured at about 32° C. for about 24 hours to 48 hours, and fungi were cultured at about 25° C. for about 24 hours to 48 hours. […] The growth of normal bacteria in a medium to which no sample was added was measured and used as a positive control.

[2] = tested on: Candida albicans (ATCC 10231); conditions: Experimental Example 1; growth inhibited by about 95% or more; about 10^6 CFU/ml; about 25° C., 24 to 48 hours
Protocol: as §1, §2, §3, §4

[3] = tested on: Escherichia coli (ATCC 8739); conditions: Experimental Example 1; growth inhibited by about 95% or more; about 10^6 CFU/ml; about 32° C., 24 to 48 hours
Protocol: as §1, §2, §3, §4

[4] = tested on: Staphylococcus aureus (ATCC 6538); conditions: Experimental Example 1; growth inhibited by about 95% or more; about 10^6 CFU/ml; about 32° C., 24 to 48 hours
Protocol: as §1, §2, §3, §4

[5] = tested on: Pseudomonas aeruginosa (ATCC 9027); conditions: Experimental Example 1; growth inhibited by about 95% or more; about 10^6 CFU/ml; about 32° C., 24 to 48 hours
Protocol: as §1, §2, §3, §4

CC(O)CO (centres unmarked) [Propylene glycol]
>10 %, w/w: MIC (%, w/w) of sample A. brasiliensis [1] | MIC (%, w/w) of sample C. albicans [2] | MIC (%, w/w) of sample E. coli [3] | MIC (%, w/w) of sample S. aureus [4] | MIC (%, w/w) of sample P. aeruginosa [5]
